Each structure is given as a SMILES string.

For assay [1], the target named is Histamine H1 receptor (Homo sapiens, UniProt P35367). The experiment in a line: Binding affinity for human Histamine H1 receptor in CHO K1 cells. The format is cell-based.
The target of assay [2] is T1, Polyunsaturated fatty acid 5-lipoxygenase (Homo sapiens, UniProt P09917).
T1 sequence (P09917 whole entry): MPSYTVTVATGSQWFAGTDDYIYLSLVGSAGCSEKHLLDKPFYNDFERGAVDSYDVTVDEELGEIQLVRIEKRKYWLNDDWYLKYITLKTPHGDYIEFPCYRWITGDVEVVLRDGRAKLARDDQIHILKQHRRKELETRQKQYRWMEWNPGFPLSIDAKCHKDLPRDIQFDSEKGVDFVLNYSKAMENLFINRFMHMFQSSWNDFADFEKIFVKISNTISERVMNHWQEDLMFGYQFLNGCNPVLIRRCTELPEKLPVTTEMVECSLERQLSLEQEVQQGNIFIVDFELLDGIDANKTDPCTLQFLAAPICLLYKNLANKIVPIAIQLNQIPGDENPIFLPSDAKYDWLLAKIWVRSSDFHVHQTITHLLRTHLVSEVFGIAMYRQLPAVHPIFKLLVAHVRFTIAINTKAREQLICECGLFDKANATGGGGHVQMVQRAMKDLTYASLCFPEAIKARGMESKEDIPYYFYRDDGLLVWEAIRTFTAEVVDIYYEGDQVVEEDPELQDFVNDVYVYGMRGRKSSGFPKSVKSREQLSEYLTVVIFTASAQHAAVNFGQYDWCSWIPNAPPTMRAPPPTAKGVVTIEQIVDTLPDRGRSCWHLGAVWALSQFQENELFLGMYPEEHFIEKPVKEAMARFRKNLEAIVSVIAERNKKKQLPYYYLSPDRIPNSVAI
Description: Inhibitory concentration against human 5-lipoxygenase.

Assay [3] addresses T1, Polyunsaturated fatty acid 5-lipoxygenase. The experiment in a line: Inhibitory concentration against 5-lipoxygenase in human whole blood. It counts as functional, tissue-based.

Histamine H1 receptor, sequence (P35367 whole entry): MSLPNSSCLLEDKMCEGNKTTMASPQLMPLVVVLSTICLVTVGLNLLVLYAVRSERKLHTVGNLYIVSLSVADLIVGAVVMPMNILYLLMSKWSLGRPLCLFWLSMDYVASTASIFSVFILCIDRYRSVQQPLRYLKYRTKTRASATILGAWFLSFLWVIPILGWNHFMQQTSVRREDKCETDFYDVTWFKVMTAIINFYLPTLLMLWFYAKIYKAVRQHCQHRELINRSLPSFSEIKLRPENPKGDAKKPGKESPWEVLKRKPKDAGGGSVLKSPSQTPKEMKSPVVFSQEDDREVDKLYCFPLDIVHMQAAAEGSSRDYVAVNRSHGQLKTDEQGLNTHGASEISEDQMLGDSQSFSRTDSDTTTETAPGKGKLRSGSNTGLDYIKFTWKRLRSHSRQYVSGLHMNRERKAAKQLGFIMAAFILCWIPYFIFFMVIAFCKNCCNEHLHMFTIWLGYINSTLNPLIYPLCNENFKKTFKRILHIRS

For orientation: Ki means a measure of affinity in units of concentration, obtained from inhibition or displacement. Lower therefore signals higher affinity. Broadly, the IC50 is the concentration that inhibits the measured activity by half. `CCOC(=O)N(O)CCC#Cc1ccc(OCCCCN2CCN(C(c3ccc(F)cc3)c3ccc(F)cc3)CC2)cc1` gave a Ki in assay [1] of 5.89 nM. Moreover, the IC50 stood at 365 nM in assay [2] and 72 nM in assay [3].
For `CC(C)OC(=O)N(O)CCC#Cc1ccc(OCCCCN2CCN(C(c3ccc(F)cc3)c3ccc(F)cc3)CC2)cc1` the same measures were 9.55 nM, 335 nM and 102 nM.
As for `CC(C)COC(=O)N(O)CCC#Cc1ccc(OCCCCN2CCN(C(c3ccc(F)cc3)c3ccc(F)cc3)CC2)cc1`, in assay [1], the Ki stood at 7.59 nM. The values for the IC50 in assay [2] and in assay [3] were 420 nM and 176 nM, respectively.
The matching figures for `O=C(OCc1ccccc1)N(O)CCC#Cc1ccc(OCCCCN2CCN(C(c3ccc(F)cc3)c3ccc(F)cc3)CC2)cc1`: 17.8 nM, 350 nM and 150 nM.
As to `COC(=O)N(O)CCC#Cc1ccc(OCCCCN2CCN(C(c3ccc(F)cc3)c3ccc(F)cc3)CC2)cc1`, the affinity in assay [1] corresponds to a Ki of 5.01 nM. For the same compound, the values for the IC50 in assay [2] and in assay [3] were 170 nM and 90 nM, respectively.
In turn, `NC(=O)N(O)CCC#Cc1ccc(OCCCCN2CCN(C(c3ccc(F)cc3)c3ccc(F)cc3)CC2)cc1` had an IC50 in assay [2] of 193 nM.

(Values after ChEMBL document CHEMBL1141893, “5-Lipoxygenase inhibition by N-hydroxycarbamates in dual-function compounds” (Bioorg Med Chem Lett, 2005).)
